The values that follow come from US20230355501A1, “COSMETIC COMPOSITION” (AJINOMOTO CO., INC., priority 2021, published 2023).

This series is described as follows: Melting point of PHC compositions by differential scanning calorimeter. Type of series: physicochemical. The following applies: DSC7000X, approx. 2 mg, nitrogen atmosphere, from 25° C. at 5° C./min. The protocol:
PHCs in a mixing ratio shown in Table 2 were mixed in a mortar, to prepare each sample.
Each sample in an amount of approximately 2 mg was heated under a nitrogen atmosphere using a differential scanning calorimeter DSC7000X (Hitachi High-Tech Science Corporation) with the temperature raised from 25° C. at a rate of 5° C./min. The temperature at the intersection of the base line and the inflection point of endothermic peak was taken as the melting point of the sample.
In general terms: Differential scanning calorimetry records heat flow against a reference as temperature is scanned.

In the case of `CCCCCCCCCCCCCCCCCC(=O)NC(CO)C(O)C(O)CCCCCCCCCCCC` (stereo not drawn) [Sample 11, C18:0-PHS16:0], the Melting point came out at 122.0 °C.
Regarding `CCCCCCCCCCCCCCCCCC(=O)NC(CO)C(O)C(O)CCCCCCCCCCCCCC` (stereo not drawn) [Sample 12, C18:0-PHS18:0], the Melting point turned out to be 124.2 °C.
The figure for `CCCCCCCCCCCCCCCCCC(=O)NC(CO)C(O)C(O)CCCCCCCCCCCCCCCC` (stereo not drawn) [Sample 13, C18:0-PHS20:0] is 126.2 °C.
